Experimental data published in PubChem BioAssay (NCI).
Several values for one entry are separate records, joined by “and”; a condition that tells them apart may be missing. Equal values may be shown once.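 A five-concentration, 48-hour dose response in 96-well plates underlies each endpoint, interpolated linearly between surrounding concentrations. GI50 is the concentration that inhibits growth by half. TGI is the concentration that stops growth completely.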

What was measured:
Test in all cases: growth of human tumour cells (NCI), 48 h
SN12C renal = tested on: SN12C renal
SF-268 CNS = tested on: SF-268 CNS
UACC-257 melanoma = tested on: UACC-257 melanoma
HOP-62 NSCLC = tested on: HOP-62 NSCLC
SW-620 colon = tested on: SW-620 colon
SF-539 CNS = tested on: SF-539 CNS
SNB-19 CNS = tested on: SNB-19 CNS
HCC-2998 colon = tested on: HCC-2998 colon

Compound | TGI (SN12C renal) [µM] | TGI (SF-268 CNS) [µM] | TGI (UACC-257 melanoma) | TGI (HOP-62 NSCLC) [µM] | TGI (SW-620 colon) [µM] | TGI (SF-539 CNS) | GI50 (SNB-19 CNS) [µM] | TGI (SNB-19 CNS) [µM] | GI50 (SN12C renal) [µM] | GI50 (UACC-257 melanoma) [µM] | TGI (HCC-2998 colon) [µM] | GI50 (SW-620 colon) [µM] | GI50 (SF-539 CNS) [µM] | GI50 (SF-268 CNS) [µM] | GI50 (HOP-62 NSCLC) [µM] | GI50 (HCC-2998 colon) [µM]
COc1cccc2c1-c1nc(N)c3c(OC)cccc3c1C2=O | > 100 | > 100 | > 100 µM | 58.5 | > 100 | > 100 µM | – | – | – | – | – | – | – | – | – | –
C=C1C[C@H]2C=Nc3cc(OCCCOc4cc5c(cc4OC)C(=O)N4CC(=C)C[C@H]4C=N5)c(OC)cc3C(=O)N2C1 | – | – | 0.0421 µM and 0.0917 µM | < 0.215 | > 85.2 | 0.0117 µM and 0.0286 µM | 0.00545 | 4.39 | 0.00151 | 0.0213 | 0.0143 | 0.0144 | 0.00459 | – | – | –
O=C1NC(=S)S/C1=C\c1cn(-c2ccccc2)nc1-c1ccccc1 | > 100 | > 100 | 73.9 µM | 68.4 | > 100 | 21.1 µM | 6.14 | > 100 | 9.93 | 13.2 | 47.1 | 19.6 | 5.53 | 17.2 | 22.7 | 6.05
C[C@@]1([C@H](OC(=O)c2ccccc2)C(N)=O)CO1 | 33.9 | 50 | > 100 µM | 64.9 | 95.2 | 55.7 µM | 30.5 | 93.6 | 13.7 | 43.7 | 40.3 | 22.6 | 21.6 | 19.4 | 21.8 | 20.5
O=C(O)C1=C/C(=C(/c2ccccc2)c2cc(C(=O)O)c(O)c3ccccc23)c2ccccc2C1=O | > 100 | > 100 | > 100 µM | > 100 | > 100 | > 100 µM | – | > 100 | – | – | > 100 | – | – | – | – | –
CC(C)=CCc1cc2c(cc1O)C1=C(C(=O)C3=C(C1=O)S(=O)(=O)CCN3)C(C=C(C)C)O2 (stereo not drawn) | 0.651 | 4.74 | 1.5 µM | 4.63 | 1.76 | 4.02 µM | 0.651 | 2.64 | 0.294 | 0.482 | 3.84 | 0.554 | 1.96 | 0.917 | 2.33 | 1.48
COc1ccc(-c2cc(-c3ccc(Nc4nc(Nc5ccccc5)nc(Nc5ccc(Cl)cc5)n4)cc3)nc(N)n2)cc1 | 32.6 | 46.8 | 45.5 µM | 33.1 | 44.9 | 25.8 µM | 9.03 | 24.6 | 11.8 | 15.9 | 35 | 13.1 | 10.3 | 13.3 | 10.3 | 12.8
COc1cc(/C=C/C(=O)c2cccc(-n3cc(-c4cc(OC)c(OC)c(OC)c4)[nH]c3=O)c2)cc(OC)c1OC | 18.2 | 7.47 | 5.45 µM | 8.74 | – | 18 µM | 4.07 | 15.8 | 2.75 | 2.22 | 3.43 | – | 3.12 | 2.2 | 3.08 | 1.92
CN1CCN(CC(=O)N(C)c2ccc(N=C(c3ccccc3)c3c(O)[nH]c4ccc(C#N)cc34)cc2)CC1 | 11.4 | 14.6 | 6.2 µM | 16.5 | 6.93 | 2.23 µM | 4.16 | 16.6 | 1.56 | 2.5 | 13.4 | 1.9 | 0.961 | 2.62 | 3.99 | 3.38
CSC1=NC(=Nc2c(C)cccc2C)C2(CCC(C(C)(C)C)CC2)N1c1ccc(Cl)cc1 (stereo not drawn) | > 100 | > 100 | – | > 100 | > 100 | > 100 µM | > 100 | > 100 | 40.8 | – | > 100 | 27 | 71.7 | 32.5 | > 100 | 92.9
Cc1ccccc1N=Nc1c(O)ccc2ccccc12 | > 100 | > 100 | > 100 µM | > 100 | > 100 | – | – | > 100 | – | – | – | – | – | – | – | –
O=C1CC2OCC=C3CN4CCC56c7ccccc7N1C5C2C3CC46O (stereo not drawn) | > 100 | > 100 | > 100 µM | – | > 100 | > 100 µM | – | > 100 | – | – | > 100 | – | – | – | – | –
COc1ccc(-c2cc(=O)c3c(O)c(OC)c(OC)c(OC)c3o2)cc1OC | > 100 | 51.6 | > 100 µM | 82.9 | – | > 100 µM | – | > 100 | – | – | > 100 | – | – | – | – | –
CCN(CC)c1ccc(/C=C/C(=O)c2ccc(Nc3nc(Nc4ccccc4)nc(Nc4ccccc4)n3)cc2)cc1 | > 100 | 47.2 | > 100 µM | 28.1 | > 100 | > 100 µM | 41.3 | > 100 | > 100 | 20.4 | – | 31.2 | 9.08 | 8.51 | 2.55 | –
Cn1cc(/C=C\[N+](=O)[O-])c2ccccc21 | > 100 | > 100 | > 100 µM | > 100 | – | 49.1 µM | 75 | > 100 | > 100 | 33.1 | > 100 | – | 23.5 | > 100 | > 100 | 33.2
CCOC(=O)CSc1cc(Cl)c(C)cc1S(=O)(=O)/N=C(/N=C/c1ccc([N+](=O)[O-])s1)NNC | – | > 100 | 67.2 µM | 31.3 | > 100 | – | 22.8 | 80.1 | – | 28.7 | – | 31.1 | – | 29.8 | 13.3 | –
COc1cccc(/C=C/C(=O)c2ccc3cc(OC)ccc3c2)c1 | – | > 50 | > 50 µM | > 50 | 20.5 | 16.8 µM | 14 | 47.3 | – | > 50 | – | 7.03 | 7.95 | 15.5 | 17.3 | –
